The values below come from patent publication US8691799B2, “Materials and methods for treatment of cancer and identification of anti-cancer compounds” (priority 2001, dated 2014).

What all share (type): biochemical
In experiment [1] the test system is Src. Put plainly: Src kinase autophosphorylation assay on immunoprecipitates. The conditions noted are these: immunoprecipitates from A549, MDA-MB-468 or v-Src/NIH 3T3 cells. How it is done:
Src Kinase Assay. A549, MDA-MB-468, and v-Src cells were harvested and lysed for 30 min on ice in RIPA150 buffer (10 mM Tris, pH 7.5, 150 mM NaCl, 10% glycerol, 5 mM EDTA, 1% Triton-X-100, 0.1% SDS, 100 μM sodium orthovanadate, 10 μg/ml aprotinin, 10 μg/ml leupeptin, 1 μg/ml antipain). Samples were spun at high speed to clear, then 1000 μg of protein were immunoprecipitated per treatment condition with 2 μg v-Src antibody (Ab-1, Oncogene Research Products, San Diego, Calif.) rocking overnight at 4° C. 25 μl of protein A/G PLUS agarose then was added and rocking continued for 4 hr at 4° C. Samples were spun to collect agarose pellet, and pellet washed three times in RIPA150 buffer, twice in RIPA10 buffer (10 mM Tris, pH 7.5, 10 mM NaCl, 10% glycerol, 5 mM EDTA, 1% Triton-X-100, 0.1% SDS, 100 μM sodium orthovanadate 10 μg/ml aprotinin, 10 μg/ml leupeptin, 1 μg/ml antipain), and three times in 40 mM Tris, pH 7.4. Pellet was then resuspended in 30 μl kinase reaction buffer (20 mM Tris, pH 7.4, 5 mM MgCl2) containing 10 μCi γ-[^32P]ATP. Inhibitors were preincubated for several minutes before the addition of the ATP. Kinase reactions were carried out at room temperature for 15 min. Reaction was stopped with the addition of 2×SDS-PAGE sample buffer. Samples were boiled and run on 10% SDS-PAGE gels. Autophosphorylation results were visualized by autoradiography.

Experiment [2] addresses T1, JAK2 (Homo sapiens, UniProt O60674).
T1 construct: Src, JAK1, and JAK2 were immunoprecipitated from either A549, MDA-MB-468, or v-Src/NIH 3T3 cells; endogenous in cells; host or cells: A549, MDA-MB-468, v-Src transformed NIH 3T3 (immunoprecipitates)
Put plainly: JAK kinase autophosphorylation assay on immunoprecipitates (JAK2). To be noted: immunoprecipitates from A549, MDA-MB-468 or v-Src/NIH 3T3 cells; AG490 100 μM, PD180970 2 μM. How it is done:
(§1) JAK Kinase Assays. A549, MDA-MB-468, and v-Src transformed NIH 3T3 cells were harvested, washed three times in PBS-V (10 mM sodium phosphate, pH 7.4, 137 mM NaCl, 1 mM sodium orthovanadate) then lysed for 30 min on ice in JAK kinase lysis buffer (25 mM Hepes, pH 7.4, 0.1% Triton-X-100, 0.5 mM DTT, 1 mM sodium orthovanadate, 1 mM PMSF, 10 μg/ml aprotinin, 10 μg/ml leupeptin). Samples were spun at high speed to clear, and 800-1000 μg of protein was immunoprecipitated per treatment condition with 50 ng of either JAK1 or JAK2 antibody (Santa Cruz Biotechnology) rocking overnight at 4° C. 25 μl of protein A/G PLUS agarose then was added and rocking continued for 1 hr at 4° C. Samples were spun to collect agarose pellet, and pellet washed twice in wash buffer (50 mM Hepes, pH 7.4, 0.1% Triton-X-100, 0.5 mM DTT, 150 mM NaCl) and once in phosphorylation buffer (50 mM Hepes, pH 7.4, 0.1% Triton-X-100, 0.5 mM DTI, 6.25 mM manganese chloride, 100 mM NaCl). Kinase reactions were performed at 30° C. for 15 min in a final volume of 100 μl of phosphorylation buffer. Samples were pretreated with DMSO control, JSI-124, and control compounds (AG490, 100 μM, and […], 2 μM) before addition of 20 μCi/sample y-[^32P]ATP. Reaction was halted using stop buffer (wash buffer plus 10 mM EDTA), samples spun to collect pellet, then pellet washed once with stop buffer and twice with wash buffer. Samples were then placed in 2×SDS-PAGE sample buffer, boiled at 100° C., and run on 8% SDS-PAGE gels to separate proteins. Autophosphorylation results were visualized by autoradiography.

The subject of experiment [3] is JAK1. The experiment is described as follows: JAK kinase autophosphorylation assay on immunoprecipitates (JAK1). To be noted: immunoprecipitates from MDA-MB-468 or v-Src/NIH 3T3 cells; AG490 100 μM, PD180970 2 μM. The protocol:
as §1

T1 sequence (O60674 whole entry): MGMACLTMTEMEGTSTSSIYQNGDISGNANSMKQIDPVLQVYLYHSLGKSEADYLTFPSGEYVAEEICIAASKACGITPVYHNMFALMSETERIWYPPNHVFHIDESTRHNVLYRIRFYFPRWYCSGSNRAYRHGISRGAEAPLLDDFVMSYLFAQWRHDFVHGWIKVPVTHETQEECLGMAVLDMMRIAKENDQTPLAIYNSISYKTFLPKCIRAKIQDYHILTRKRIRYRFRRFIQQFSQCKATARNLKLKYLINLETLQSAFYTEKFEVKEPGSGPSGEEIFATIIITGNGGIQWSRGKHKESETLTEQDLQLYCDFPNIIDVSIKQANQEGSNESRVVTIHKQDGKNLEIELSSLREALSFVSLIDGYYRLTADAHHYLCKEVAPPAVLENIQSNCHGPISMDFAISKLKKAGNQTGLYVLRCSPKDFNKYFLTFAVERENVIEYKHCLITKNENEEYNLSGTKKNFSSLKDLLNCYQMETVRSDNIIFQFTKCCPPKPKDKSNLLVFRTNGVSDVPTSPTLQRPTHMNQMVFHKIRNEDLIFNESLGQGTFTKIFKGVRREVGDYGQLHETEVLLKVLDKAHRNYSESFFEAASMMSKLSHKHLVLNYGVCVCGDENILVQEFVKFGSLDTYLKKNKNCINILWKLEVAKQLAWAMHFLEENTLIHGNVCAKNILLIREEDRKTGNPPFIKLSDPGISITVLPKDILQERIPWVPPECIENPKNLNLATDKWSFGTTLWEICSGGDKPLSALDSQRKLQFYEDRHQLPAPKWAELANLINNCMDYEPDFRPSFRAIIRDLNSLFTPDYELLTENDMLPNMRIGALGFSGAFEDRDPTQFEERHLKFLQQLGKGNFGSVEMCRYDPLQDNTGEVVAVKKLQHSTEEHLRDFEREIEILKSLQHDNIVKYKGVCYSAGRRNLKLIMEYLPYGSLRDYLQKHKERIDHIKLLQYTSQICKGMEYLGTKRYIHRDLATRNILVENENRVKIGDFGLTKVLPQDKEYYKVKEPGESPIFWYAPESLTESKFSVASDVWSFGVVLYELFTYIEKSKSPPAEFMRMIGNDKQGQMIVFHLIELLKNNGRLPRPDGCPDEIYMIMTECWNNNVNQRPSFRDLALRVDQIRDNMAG

For `Cc1cc(Nc2ncc3cc(-c4c(Cl)cccc4Cl)c(=O)n(C)c3n2)ccc1F` [PD180970], the “Src kinase activity (autophosphorylation) in vitro” value in experiment [1] is “inhibits Src”. Also, in experiment [2], the “JAK2 kinase activity (autophosphorylation) in vitro” value is on record as “not JAK1 or JAK2 activities”. For the same compound, the “JAK1 kinase activity (autophosphorylation) in vitro” value in experiment [3] is “not JAK1 or JAK2 activities”.

Take `N#C/C(=C/c1ccc(O)c(O)c1)C(=O)NCc1ccccc1` [AG490]: the “Src kinase activity (autophosphorylation) in vitro” value in experiment [1] was “not Src kinase activities”. Further, the “JAK2 kinase activity (autophosphorylation) in vitro” value in experiment [2] was “inhibited JAK1 and JAK2”. Besides, the “JAK1 kinase activity (autophosphorylation) in vitro” value in experiment [3] is “inhibited JAK1 and JAK2”.
